Experimental data reported in paper PMC11945475, “Nasal Administration of a Nanoemulsion Based on Methyl Ferulate and Eugenol Encapsulated in Chitosan Oleate: Uptake Studies in the Central Nervous System” (Pharmaceutics, 2025).

How the values were obtained:
[1] = Intravenous administration of Fer-Me to rats (bloodstream and CSF pharmacokinetics); assay type: in vivo, rat
Experimental: Charles River laboratories, Calco, Italy) bloodstream and CSF. […] The sample size (4 rats/group) has been chosen based on our previous studies. The experimental procedures were approved by the Italian Ministry of Health and were performed in accordance with the European Communities Council Directive of September 2010 (2010/63/EU). According to the ARRIVE guidelines, all possible efforts were made to minimize animal pain and discomfort and to reduce the number of experimental subjects. Fer-Me solution (2.5 mg/mL final concentration, 15% v/v EtOH content) was prepared by first dissolving Fer-Me in EtOH and then adding this latter solution to a saline solution (0.9% NaCl). […] The aqueous phase was then subjected to a double extraction with 1 mL of H2O-saturated ethyl acetate. […] Data were acquired and processed through CLASS-VP Software; version 7.2.1 (Shimadzu Italia, Milan, Italy). The mobile phase was eluted under isocratic conditions (0.8 mL/min) and was constituted by a mixture of acetic acid in H2O (0.4% v/v) and MeOH, whose ratio was 40:60 (v/v). The UV-Vis detector was set at 320 nm for the detection of Fer-Me, its hydrolysis product Fer, and Caf-Me, which was utilized as an internal standard during blood sample extraction. […] The average recoveries were approximately 40% for Fer and 58% for Fer-Me. For this reason, the concentrations of these compounds were determined by their peak area ratio with respect to the internal standard (Caf-Me). […] Fer-Me in vivo half-life (t1/2) in the rats' bloodstream was determined using nonlinear regression (exponential decay) of concentration values quantified at appropriate time intervals after infusion, further validated by applying linear regression to the semi-logarithmic plot.

[2] = design: method as in PMID 33547615; conditions: rats, Fer at doses up to 40 mg/kg; cited from earlier work
[3] = rat, Fer 1 mg/kg i.v.; cited from earlier work
[4] = rat, after Fer-Me 10 mg/kg i.v. infusion

For `COc1cc(/C=C/C(=O)O)ccc1O` [Fer, ferulic acid], the “Fer AUC as percentage of the Fer-Me AUC value” ([1]; rat bloodstream, after Fer-Me 10 mg/kg i.v.) was 1.3%, the “Fer concentration in the bloodstream” value ([1]; rat, about 20 min after end of Fer-Me 10 mg/kg i.v. infusion) was 0.205 ± 0.050 µg/mL and the “AUC of hydrolysis product Fer in the bloodstream” value [1, 4] was 8.4 ± 0.8 µg·min/mL. The “C0 of hydrolysis product Fer in the bloodstream” value [1, 4] was 209 ± 1 ng/mL, the “time within which Fer blood concentration decreased to zero” value ([1]; rat, from the end of Fer-Me 10 mg/kg i.v. infusion) was ≤ 60 min and the side effects [2] was “no side effects”. For the same compound, the “AUC in CSF” value [3] was 3.3 ± 0.3 µg·min/mL, the “AUC in the bloodstream” value [3] was 244 ± 13 µg·min/mL and the “Cmax in CSF” value [3] was 80 ± 10 ng/mL. For the same compound, the “Tmax in CSF” value [3] was 1 h.
